Key:
CD-1 mouse plasma = test: Plasma protein binding rate assay (equilibrium dialysis); type: in vitro ADME; details: compound 1 μM, equilibrium dialysis 6 hours at 37° C.
Experimental: 1. CD-1 mouse plasma (BioIVT)
1. Formulation of a buffer solution containing 100 mM sodium phosphate and 150 mM NaCl: An alkaline solution containing Na2HPO4 (14.2 g/L) and NaCl (8.77 g/L) was formulated with ultrapure water. An acidic solution containing NaH2PO4 (12.0 g/L) and NaCl (8.77 g/L) was formulated with ultrapure water. The alkaline solution was titrated with the acidic solution until the pH value was 7.4, thus formulating the buffer solution containing 100 mM sodium phosphate and 150 mM NaCl.
2. Preparation of dialysis membrane: The dialysis membrane was immersed in ultrapure water for 60 minutes to separate the membrane into two pieces, then immersed in 20% ethanol for 20 minutes, and finally immersed in a buffer for dialysis for 20 minutes.
3. Preparation of plasma: Frozen plasma was thawed rapidly at room temperature. Thereafter, the plasma was centrifuged at 3220 g for 10 minutes at 4° C. to remove clots, and the supernatant was collected into a new centrifuge tube. The pH values of plasma were measured and recorded. The plasma with a pH value of 7 to 8 was used.
4. Formulation of compound-containing plasma samples: A 10 mM stock solution of the compound of the present disclosure or the positive control compound was diluted with DMSO to obtain a 200 μM working solution. 3 μl of the 200 μM working solution of the compound was added into 597 μl of mouse plasma to obtain a plasma sample with a final concentration of 1 μM.
5. Steps of equilibrium dialysis: The dialysis device was assembled according to the operating instructions. 120 μL of a plasma sample containing 1 μM compound was added on one side of the dialysis membrane, and an equal volume of dialysate (phosphate buffer solution) was added on the other side. Duplicate samples were set in the experiment. The dialysis plate was sealed and placed in an incubation device where the samples were incubated at 37° C. in an atmosphere containing 5% CO2 for 6 hours with a rotational speed of about 100 rpm. After the incubation was complete, the sealing membrane was removed. 50 μl of samples were respectively aspirated from the buffer solution side and the plasma side of each well and transferred into different wells of a new plate. 50 μl of blank plasma was added into the sample obtained from the phosphate buffer solution side, and an equal volume of blank phosphate buffer solution was added into the plasma sample, followed by the addition of 300 μl of acetonitrile containing the internal standard to precipitate protein. The sample was vortexed for 5 minutes and centrifuged at 3220 g for 30 minutes at 4° C. 100 μl of the supernatant was aspirated and transferred to the sample plate, mixed well with 100 μL of ultrapure water, and used for LC-MS/MS analysis.
The peak areas of the compounds on the buffer solution side and the plasma side were determined. The formula for calculating the plasma protein binding rate of the compound was as follows:
% Free rate=(the ratio of the peak area of the compound to the peak area of the internal standard on the buffer solution side/the ratio of the peak area of the compound to the peak area of the internal standard on the plasma side)×100
% Binding rate=100−% free rate

[1] = Pharmacokinetic experiment in mouse; type: in vivo; details: female CB17-SCID mice, oral dose 25 mg/kg; for half-life: mouse, plasma, read-out: Drug Elimination Half-life (converted)
Source text: CB17-SCID mice were purchased from Beijing Vital River Laboratory Animal Technology Co., Ltd.
DMSO, HP-β-CD (hydroxypropyl-β-cyclodextrin), PEG400 (polyethylene glycol 400), and Vitamin E TPGS (D-α-tocopherol polyethylene glycol 1000 succinate) were purchased from Sigma.
Six female CB17-SCID mice (20 g to 30 g, aged 4 to 6 weeks) were divided randomly into two groups, with 3 mice in each group. In Group 1, the compound in a vehicle of an aqueous solution containing 5% dimethyl sulfoxide and 95% hydroxypropyl-β-cyclodextrin (10%, w/v) was administered by intravenous injection via tail vein. In Group 2, a corresponding dose of the compound in a vehicle of an aqueous solution containing 30% polyethylene glycol 400 and 70% D-α-tocopherol polyethylene glycol 1000 succinate (10%, w/v) was orally administered. The animals were fed normally with food and water before experiment. The mice in each group underwent intravenous blood collection before administration and at 0.083 h (intravenous injection group only), 0.25 h, 0.5 h, 1 h, 2 h, 4 h, 6 h, 8 h, and 24 h after administration. The collected whole blood samples were placed in K2EDTA anticoagulation tubes and centrifuged for 5 min (4000 rpm, 4° C.) to collect the plasma for testing.
10 μL of the mouse plasma sample was taken, and 150 μL of acetonitrile solvent (containing the internal standard compound) was added to precipitate protein. After the resultant was vortexed for 0.5 min and centrifuged (4700 rpm, 4° C.) for 15 min, the supernatant was subjected to 2-fold dilution with water containing 0.05% (v/v) FA and was then subjected to quantitative measurement in LC-MS/MS system (AB Sciex Triple Quad 6500+). A calibration standard curve was prepared in CB17-SCID mouse plasma along with quality control samples to determine the plasma concentration. As for a 10× diluted sample, 2 μL of sample was taken and 18 μL of blank plasma was added. After being vortexed for 0.5 min, the mixture was added with 300 μL of acetonitrile solvent (containing the internal standard compound) so as to precipitate protein. The rest of the processing steps were the same as those for the undiluted samples.

Row | % Binding Rate (CD-1 mouse plasma) | Drug Exposure [1] | Max. Drug Conc. [1] | Peak Time of Drug Conc. [1] | half-life [1] | Compound
1 | 97% | 156.699 µg·h/mL | 14798 ng/mL | 1.3 h | 5 h | CC(C)OC(=O)Nc1ccc(-c2cnc([C@H]3CC[C@H](NC(=O)OC(C)C)CC3)s2)c(S(=N)(=O)C2CC2)c1 (stereo partly drawn) [Example 68, isopropyl trans-N-[3-(cyclopropylsulfonimidoyl)-4-[2-[4-(isopropoxycarbonylamino)cyclohexyl]thiazol-5-yl]phenyl]carbamate]
2 | 99.7%^ | 223.309 µg·h/mL | 13563 ng/mL | 5 h | 10 h | CC(C)OC(=O)NC1CCC(c2ncc(-c3ccc(Nc4ccc(F)cn4)cc3S(=N)(=O)C3CC3)s2)CC1 (stereo not drawn) [Example 81, isopropyl trans-N-[4-[5-[2-(cyclopropylsulfonimidoyl)]-4-[(5-fluoro-2-pyridyl)amino]phenyl]thiazol-2-yl]cyclohexyl]carbamate]
3 | 98.8%^ | 40.08 µg·h/mL | 8038 ng/mL | 1 h | 3.6 h | Cc1cc(Nc2ccc(-c3cnc([C@H]4CC[C@H](NC(=O)OC(C)C)CC4)s3)c(S(=O)(=O)C3COC3)c2)n[nH]1 [Example 92, isopropyl trans-N-[4-[5-[4-[(5-methyl-1H-pyrazol-3-yl)amino]-2-(oxetan-3-ylsulfonyl)phenyl]thiazol-2-yl]cyclohexyl]carbamate]
